Source: ChEMBL document CHEMBL1201862, “PubChem BioAssay data set” (2004)
Activity calls are given as the source filed them.

Tests used:
[1] = inhibitors of intracellular T. cruzi replication, confirmation, NIH3T3 host cells, beta-gal luminescence (AID 2044); assay type: functional, cell-based;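 note: intracellular parasites grown in NIH/3T3 mouse fibroblasts as host cells; luminescent beta-galactosidase reporter signal from transgenic T. cruzi replicating inside host cells; inhibitors lower the luminescence signal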
[2] = cytotoxicity toward NIH3T3 fibroblasts, dose response, counter-screen, cell-based, ATP luminescence, mouse fibroblasts (AID 2010); assay type: functional;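 note: cells exposed to compound for about 90 hours before reading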
Nonstructural protein 1 = Nonstructural protein 1 (Influenza A virus, UniProt Q194T2); assay type: functional, Influenza A virus (A/California/07/2009(H1N1))
Nonstructural protein 1, sequence (Q194T2 whole entry): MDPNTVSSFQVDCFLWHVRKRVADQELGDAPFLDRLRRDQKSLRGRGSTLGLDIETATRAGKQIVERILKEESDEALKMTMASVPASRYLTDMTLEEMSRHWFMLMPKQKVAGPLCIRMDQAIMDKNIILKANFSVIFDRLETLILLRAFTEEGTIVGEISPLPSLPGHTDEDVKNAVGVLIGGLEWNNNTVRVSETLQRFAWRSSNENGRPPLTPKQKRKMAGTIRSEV

HEK293 = assay: inhibitors of LMP1-driven NF-kB reporter, dose response, cell-based, HEK293, luciferase, cherry-pick (AID 588343); assay type: functional; details: Homo sapiens
INS1 = assay: beta cell apoptosis inhibitors, cytokine rescue, dose response, luminescence, retest (AID 449756); assay type: functional, cell-based; details: Rattus norvegicus;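 note: cell death triggered by IL-1 beta plus TNF-alpha plus IFN-gamma mixture; protective hits raise ATP signal compared with cytokine alone wells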
[3] = target: Photoreceptor-specific nuclear receptor (Homo sapiens, UniProt Q9Y5X4); assay type: functional, cell-based;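 note: CHO-S cells with Gal4-NCOR and VP16-NR2E3 two-hybrid luciferase reporter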
Photoreceptor-specific nuclear receptor, sequence (Q9Y5X4 whole entry, the tested form may be a part): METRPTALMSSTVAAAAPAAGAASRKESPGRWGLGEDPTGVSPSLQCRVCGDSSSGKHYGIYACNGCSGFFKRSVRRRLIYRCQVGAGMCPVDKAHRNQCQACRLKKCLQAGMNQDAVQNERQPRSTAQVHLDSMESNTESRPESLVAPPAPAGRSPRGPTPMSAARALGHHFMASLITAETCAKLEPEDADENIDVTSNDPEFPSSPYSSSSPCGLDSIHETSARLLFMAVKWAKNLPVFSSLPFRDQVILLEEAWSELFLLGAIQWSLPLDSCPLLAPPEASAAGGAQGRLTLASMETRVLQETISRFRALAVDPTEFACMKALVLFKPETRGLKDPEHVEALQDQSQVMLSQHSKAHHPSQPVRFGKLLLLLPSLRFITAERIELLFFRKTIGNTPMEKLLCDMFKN

[4] = AlphaScreen signal interference compounds, dose response, artefact control for ARNT-TACC3 interaction inhibitor project, biochemical, luminescence, cherry-pick (AID 651705); assay type: functional;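 note: AlphaScreen bead proximity signal that flags compounds interfering with the detection technology; potency reflects signal decrease which marks the compound as an assay artifact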
Mu-type opioid receptor = Mu-type opioid receptor (Homo sapiens, UniProt P35372); assay type: functional, cell-based;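 note: U2OS cells with beta-arrestin recruitment to OPRM1 by beta-gal complementation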
Mu-type opioid receptor, sequence (P35372 whole entry): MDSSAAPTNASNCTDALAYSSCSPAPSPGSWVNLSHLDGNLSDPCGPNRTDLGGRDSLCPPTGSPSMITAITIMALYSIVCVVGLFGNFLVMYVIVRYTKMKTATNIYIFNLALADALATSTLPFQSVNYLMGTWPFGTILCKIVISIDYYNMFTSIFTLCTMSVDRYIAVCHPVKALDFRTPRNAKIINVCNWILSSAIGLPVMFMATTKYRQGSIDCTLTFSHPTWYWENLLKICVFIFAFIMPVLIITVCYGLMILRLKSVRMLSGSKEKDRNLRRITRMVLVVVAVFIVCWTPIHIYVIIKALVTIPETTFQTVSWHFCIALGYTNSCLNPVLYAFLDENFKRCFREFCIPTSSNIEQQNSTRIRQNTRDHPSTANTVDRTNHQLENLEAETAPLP

[5] = target: 5-hydroxytryptamine receptor 2A (Mus musculus, UniProt P35363); assay type: functional, cell-based;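 note: CHO-K1 cells with tagged receptor and beta-arrestin; agonist potency measured as compound-induced activation of the receptor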
5-hydroxytryptamine receptor 2A, sequence (P35363 whole entry): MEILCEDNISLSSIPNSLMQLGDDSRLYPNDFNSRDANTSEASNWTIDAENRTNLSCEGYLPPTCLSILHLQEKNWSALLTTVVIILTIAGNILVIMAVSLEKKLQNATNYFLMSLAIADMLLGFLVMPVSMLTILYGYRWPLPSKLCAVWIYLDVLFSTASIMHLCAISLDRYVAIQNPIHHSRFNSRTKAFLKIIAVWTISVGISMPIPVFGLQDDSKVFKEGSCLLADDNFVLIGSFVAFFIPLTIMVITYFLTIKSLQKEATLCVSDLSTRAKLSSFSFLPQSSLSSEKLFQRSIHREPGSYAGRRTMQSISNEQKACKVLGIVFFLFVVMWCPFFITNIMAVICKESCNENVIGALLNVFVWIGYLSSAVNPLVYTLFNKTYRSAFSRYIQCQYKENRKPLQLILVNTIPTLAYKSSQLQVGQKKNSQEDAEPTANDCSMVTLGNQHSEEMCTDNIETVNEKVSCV

[6] = target: Tyrosyl-DNA phosphodiesterase 2 (Homo sapiens, UniProt O95551); assay: human TDP2 enzyme inhibitors, dose response, biochemical, epi absorbance, IC50 (AID 743297)
Tyrosyl-DNA phosphodiesterase 2, sequence (O95551 whole entry): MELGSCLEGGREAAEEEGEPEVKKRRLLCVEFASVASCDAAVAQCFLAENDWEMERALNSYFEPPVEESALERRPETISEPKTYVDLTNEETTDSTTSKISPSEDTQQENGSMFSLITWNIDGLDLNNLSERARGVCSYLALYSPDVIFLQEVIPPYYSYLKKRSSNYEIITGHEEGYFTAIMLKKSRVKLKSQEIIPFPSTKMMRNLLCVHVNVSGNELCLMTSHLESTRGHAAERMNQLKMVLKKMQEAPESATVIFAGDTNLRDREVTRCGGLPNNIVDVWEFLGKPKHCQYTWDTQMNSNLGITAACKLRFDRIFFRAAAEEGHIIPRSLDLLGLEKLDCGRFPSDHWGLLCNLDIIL

cells [7] = assay type: functional, cell-based
[8] = target: T1, Trace amine-associated receptor 1 (Homo sapiens, UniProt Q96RJ0); assay: Fluorescence-based cell-based high throughput dose response assay to identify agonists of the human trace amine associated receptor 1 (TAAR1).; assay type: functional
T1 sequence (Q96RJ0 whole entry): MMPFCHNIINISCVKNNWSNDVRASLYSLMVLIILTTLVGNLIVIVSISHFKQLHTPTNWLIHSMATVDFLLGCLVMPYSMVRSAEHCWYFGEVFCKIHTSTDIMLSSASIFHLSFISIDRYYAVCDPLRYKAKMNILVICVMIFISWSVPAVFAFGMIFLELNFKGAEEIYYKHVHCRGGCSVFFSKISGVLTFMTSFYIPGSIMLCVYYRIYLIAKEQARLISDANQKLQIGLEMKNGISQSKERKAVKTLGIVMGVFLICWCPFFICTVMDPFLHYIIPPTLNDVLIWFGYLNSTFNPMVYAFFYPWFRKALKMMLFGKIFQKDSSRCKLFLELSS

[9] = target: T1, Trace amine-associated receptor 1; assay: Counterscreen for agonists of the human trace amine associated receptor 1 (hTAAR1): Fluorescence-based cell-based high throughput dose response assay to identify hTAAR1 agonist that also desensitize TAAR1 receptor response.; assay type: functional
cells [10] = assay type: functional, cell-based; remark: listed apart in the source
Hexokinase = target: T2, Hexokinase (Trypanosoma brucei, UniProt Q38C41); assay: Confirmation assay for inhibitors of Trypanosoma brucei hexokinase 1-Analogue-first series. [Related pubchem assays (depositor defined):AID1430, AID1632, AID2516, AID2560, AID2579, AID2600, AID449725, AID492951]; assay type: functional
T2 sequence (Q38C41 whole entry): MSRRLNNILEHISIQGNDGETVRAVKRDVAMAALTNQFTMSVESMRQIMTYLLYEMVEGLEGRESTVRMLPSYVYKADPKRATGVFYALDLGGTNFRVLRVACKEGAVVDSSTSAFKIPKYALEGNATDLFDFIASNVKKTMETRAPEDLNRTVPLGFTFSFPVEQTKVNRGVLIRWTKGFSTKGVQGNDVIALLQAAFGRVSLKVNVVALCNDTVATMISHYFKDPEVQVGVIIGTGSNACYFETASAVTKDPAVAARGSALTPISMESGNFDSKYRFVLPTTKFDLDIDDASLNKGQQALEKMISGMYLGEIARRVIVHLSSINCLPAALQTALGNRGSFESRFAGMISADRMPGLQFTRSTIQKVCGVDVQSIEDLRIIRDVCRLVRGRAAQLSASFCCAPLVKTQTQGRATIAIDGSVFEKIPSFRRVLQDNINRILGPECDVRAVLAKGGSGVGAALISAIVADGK

[11] = target: Glucose-6-phosphate 1-dehydrogenase (Homo sapiens, UniProt P11413); assay: human G6PD enzyme inhibitors, dose response, selectivity assay for P. falciparum G6PD inhibitor project, biochemical, fluorescence (AID 504792); assay type: functional
Glucose-6-phosphate 1-dehydrogenase, sequence (P11413 whole entry, the tested form may be a part): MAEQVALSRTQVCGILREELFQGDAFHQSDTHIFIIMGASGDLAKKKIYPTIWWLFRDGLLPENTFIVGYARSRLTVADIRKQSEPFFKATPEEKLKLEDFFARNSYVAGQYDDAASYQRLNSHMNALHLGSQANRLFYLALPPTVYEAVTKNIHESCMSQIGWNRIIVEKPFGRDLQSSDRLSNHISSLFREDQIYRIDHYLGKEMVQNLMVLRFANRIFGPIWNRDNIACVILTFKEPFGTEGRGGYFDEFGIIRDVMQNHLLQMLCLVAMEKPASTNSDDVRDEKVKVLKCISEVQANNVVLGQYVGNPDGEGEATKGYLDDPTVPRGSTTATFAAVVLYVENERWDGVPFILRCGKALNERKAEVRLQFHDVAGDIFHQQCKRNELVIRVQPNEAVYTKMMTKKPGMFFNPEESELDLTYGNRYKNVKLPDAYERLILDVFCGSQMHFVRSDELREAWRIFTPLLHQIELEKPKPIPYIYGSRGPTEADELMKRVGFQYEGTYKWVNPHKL

[12] = Fluorescence-based cell-based high throughput dose response assay for inhibitors of the interaction of nucleotide-binding oligomerization domain containing 2 (NOD2) and the receptor-interacting serine-threonine kinase 2 (RIPK2).; assay type: functional; details: Homo sapiens
Beta Lactamase = Beta Lactamase (Pseudomonas aeruginosa, UniProt Q932Y6); assay: beta-lactamase reporter inhibitor potency, dose response, artefact control for NOD2-RIPK2 interaction inhibitor project, BLA reporter cells, FRET fluorescence (AID 651552); assay type: functional, cell-based
Beta Lactamase, sequence (Q932Y6 whole entry): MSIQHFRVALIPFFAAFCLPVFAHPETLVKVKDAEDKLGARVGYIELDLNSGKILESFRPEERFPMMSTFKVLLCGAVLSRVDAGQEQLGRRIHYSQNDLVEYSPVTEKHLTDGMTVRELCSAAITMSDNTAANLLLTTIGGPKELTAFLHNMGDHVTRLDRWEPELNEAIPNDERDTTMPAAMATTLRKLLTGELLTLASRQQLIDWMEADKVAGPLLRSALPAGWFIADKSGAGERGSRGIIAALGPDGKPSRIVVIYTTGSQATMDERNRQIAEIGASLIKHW

[13] = target: T3, Rac GTPase-activating protein 1 (Homo sapiens, UniProt Q9H0H5); assay: MgcRacGAP GTPase-activating activity inhibitors, confirmation, biochemical, ADP Hunter fluorescence, primary and confirmatory (AID 624330); assay type: functional
T3 sequence (Q9H0H5 whole entry): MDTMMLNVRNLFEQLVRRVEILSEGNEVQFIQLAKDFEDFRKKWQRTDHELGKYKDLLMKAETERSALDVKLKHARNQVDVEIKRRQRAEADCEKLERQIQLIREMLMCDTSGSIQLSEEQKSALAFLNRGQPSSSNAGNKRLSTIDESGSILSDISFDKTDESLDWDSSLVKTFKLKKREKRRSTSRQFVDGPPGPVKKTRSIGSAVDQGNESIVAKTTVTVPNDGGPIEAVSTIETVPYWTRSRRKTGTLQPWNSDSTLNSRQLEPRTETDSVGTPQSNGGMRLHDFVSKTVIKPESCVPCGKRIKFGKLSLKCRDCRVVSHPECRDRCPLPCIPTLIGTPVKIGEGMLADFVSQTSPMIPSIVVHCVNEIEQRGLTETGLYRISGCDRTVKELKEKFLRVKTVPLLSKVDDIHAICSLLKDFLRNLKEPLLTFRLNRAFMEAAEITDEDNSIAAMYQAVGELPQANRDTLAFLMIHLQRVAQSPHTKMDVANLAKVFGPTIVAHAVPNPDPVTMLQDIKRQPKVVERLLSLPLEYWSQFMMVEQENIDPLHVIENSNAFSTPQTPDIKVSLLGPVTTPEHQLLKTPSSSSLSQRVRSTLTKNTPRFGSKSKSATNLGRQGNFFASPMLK

[14] = target: SWI/SNF-related matrix-associated actin-dependent regulator of chromatin subfamily A member 2 (Homo sapiens, UniProt P51531); assay: Luminescence-based cell-based high throughput dose response assay to identify activators of the function of SWI/SNF related, matrix associated, actin dependent regulator of chromatin, subfamily a, member 2 (SMARCA2, BRM).; assay type: functional
SWI/SNF-related matrix-associated actin-dependent regulator of chromatin subfamily A member 2, sequence (P51531 whole entry): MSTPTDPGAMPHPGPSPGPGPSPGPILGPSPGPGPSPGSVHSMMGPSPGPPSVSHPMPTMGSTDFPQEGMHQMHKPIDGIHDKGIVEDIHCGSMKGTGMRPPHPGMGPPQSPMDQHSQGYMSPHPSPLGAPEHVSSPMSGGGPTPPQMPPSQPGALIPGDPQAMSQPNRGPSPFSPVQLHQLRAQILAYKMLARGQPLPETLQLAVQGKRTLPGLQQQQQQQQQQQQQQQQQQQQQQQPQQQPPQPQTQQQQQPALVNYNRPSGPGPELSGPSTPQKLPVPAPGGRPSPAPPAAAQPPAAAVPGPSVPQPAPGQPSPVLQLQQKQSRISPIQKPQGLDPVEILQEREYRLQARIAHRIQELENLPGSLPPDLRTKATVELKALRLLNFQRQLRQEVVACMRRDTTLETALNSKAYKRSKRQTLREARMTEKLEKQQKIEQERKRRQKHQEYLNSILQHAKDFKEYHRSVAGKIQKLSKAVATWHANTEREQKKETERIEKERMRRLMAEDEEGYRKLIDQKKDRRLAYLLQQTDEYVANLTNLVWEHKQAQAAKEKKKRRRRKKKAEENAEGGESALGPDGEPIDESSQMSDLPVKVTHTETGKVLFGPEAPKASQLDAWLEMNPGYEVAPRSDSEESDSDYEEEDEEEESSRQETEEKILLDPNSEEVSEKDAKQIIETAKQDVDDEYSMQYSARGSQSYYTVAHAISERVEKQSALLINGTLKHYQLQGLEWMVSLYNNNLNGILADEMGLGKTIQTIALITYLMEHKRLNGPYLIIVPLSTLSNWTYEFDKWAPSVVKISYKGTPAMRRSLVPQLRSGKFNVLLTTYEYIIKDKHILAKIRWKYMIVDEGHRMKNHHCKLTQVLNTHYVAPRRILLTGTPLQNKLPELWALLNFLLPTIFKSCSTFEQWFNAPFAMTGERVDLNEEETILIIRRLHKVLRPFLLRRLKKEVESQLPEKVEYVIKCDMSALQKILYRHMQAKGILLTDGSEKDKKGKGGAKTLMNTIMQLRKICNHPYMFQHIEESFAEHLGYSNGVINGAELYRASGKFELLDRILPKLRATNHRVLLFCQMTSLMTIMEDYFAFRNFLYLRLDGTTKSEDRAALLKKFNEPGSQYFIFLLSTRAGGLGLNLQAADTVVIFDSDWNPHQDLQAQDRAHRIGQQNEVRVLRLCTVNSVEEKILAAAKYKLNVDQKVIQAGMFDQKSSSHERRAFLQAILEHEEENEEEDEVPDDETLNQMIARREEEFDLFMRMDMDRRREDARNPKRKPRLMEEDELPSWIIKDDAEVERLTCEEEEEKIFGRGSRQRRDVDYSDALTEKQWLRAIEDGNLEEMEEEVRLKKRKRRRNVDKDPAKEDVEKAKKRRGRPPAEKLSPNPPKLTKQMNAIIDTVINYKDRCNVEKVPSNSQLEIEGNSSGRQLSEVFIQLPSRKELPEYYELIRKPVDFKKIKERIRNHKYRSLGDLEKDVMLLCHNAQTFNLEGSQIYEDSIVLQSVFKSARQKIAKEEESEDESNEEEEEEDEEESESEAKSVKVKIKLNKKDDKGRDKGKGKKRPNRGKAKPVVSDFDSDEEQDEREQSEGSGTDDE

[15] = Counterscreen for activators of the function of SWI/SNF related, matrix associated, actin dependent regulator of chromatin, subfamily a, member 2 (SMARCA2, BRM): Luminescence-based cell-based high throughput dose response assay to identify non-selective compounds using the VP16 reporter assay.; assay type: functional
[16] = inhibitors of HIV Env-driven cell fusion, dose response, cherry-pick (AID 652057); assay type: functional, cell-based
[17] = CEM21 lymphoblast cell cytotoxicity, dose response, cytotoxicity control for viral fusion inhibitor project, CellTiter-Glo luminescence, cherry-picked (AID 652042); assay type: functional, cell-based;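 note: potency for signal decrease meaning cytotoxicity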
Paired box protein Pax-8 = Paired box protein Pax-8 (Homo sapiens, UniProt Q06710); assay: inhibitors of PAX8-driven TPO luciferase reporter, dose response, RMG-I cells, cherry-pick (AID 687027); assay type: functional, cell-based;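 note: luciferase reporter driven by Pax8 target thyroperoxidase promoter measured by SteadyGlo luminescence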
Paired box protein Pax-8, sequence (Q06710 whole entry, the tested form may be a part): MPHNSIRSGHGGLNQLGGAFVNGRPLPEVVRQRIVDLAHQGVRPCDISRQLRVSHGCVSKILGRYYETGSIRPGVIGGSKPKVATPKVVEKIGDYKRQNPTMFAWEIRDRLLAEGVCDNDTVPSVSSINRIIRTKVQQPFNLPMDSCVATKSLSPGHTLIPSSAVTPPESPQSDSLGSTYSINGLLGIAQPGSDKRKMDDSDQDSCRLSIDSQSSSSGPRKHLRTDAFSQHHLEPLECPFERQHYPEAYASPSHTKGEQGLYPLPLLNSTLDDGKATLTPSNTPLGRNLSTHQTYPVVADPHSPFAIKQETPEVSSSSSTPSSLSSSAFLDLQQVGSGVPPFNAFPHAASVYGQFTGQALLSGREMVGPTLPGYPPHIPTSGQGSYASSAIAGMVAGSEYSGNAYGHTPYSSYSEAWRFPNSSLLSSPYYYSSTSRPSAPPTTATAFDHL

[18] = inhibitors of clade B AD8 Env fusion, dose response, cell-based, cherry-pick (AID 652062); assay type: functional;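 note: luciferase signal from cell-cell fusion driven by HIV-1 clade B AD8 Env; potency is for inhibitors of fusion seen as a drop in luminescence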
[19] = cytotoxicity in OVCAR8 ovarian cancer cells, dose response, PAX8 project, cell-based, plate reader, dry powder samples (AID 743197); assay type: functional; details: OVCAR-8
[20] = A cytotoxicity screen of small molecule inhibitors of the PhoP region in Salmonella typhi identified in the primary screen. [Related pubchem assays: 1850, 1864, 1985 ]; assay type: functional
[21] = test system: Streptococcus sp. 'group A'; assay: growth inhibition of control SK(-) GAS strain, dose response, counter-screen for streptokinase expression inhibitor project, luminescence, kanamycin, BacTiterGlo, confirmation (AID 1900); assay type: functional, organism-based
Streptokinase A = target: T4, Streptokinase A (Streptococcus pyogenes serotype M1, UniProt P10520); assay: S. pyogenes streptokinase expression inhibitors, potency, dose response, plasminogen activation absorbance, OD405 (AID 1914); assay type: functional, Streptococcus pyogenes M1 GAS;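 note: secreted streptokinase activity via plasminogen activation per viability signal from cell pellet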
T4 sequence (P10520 whole entry): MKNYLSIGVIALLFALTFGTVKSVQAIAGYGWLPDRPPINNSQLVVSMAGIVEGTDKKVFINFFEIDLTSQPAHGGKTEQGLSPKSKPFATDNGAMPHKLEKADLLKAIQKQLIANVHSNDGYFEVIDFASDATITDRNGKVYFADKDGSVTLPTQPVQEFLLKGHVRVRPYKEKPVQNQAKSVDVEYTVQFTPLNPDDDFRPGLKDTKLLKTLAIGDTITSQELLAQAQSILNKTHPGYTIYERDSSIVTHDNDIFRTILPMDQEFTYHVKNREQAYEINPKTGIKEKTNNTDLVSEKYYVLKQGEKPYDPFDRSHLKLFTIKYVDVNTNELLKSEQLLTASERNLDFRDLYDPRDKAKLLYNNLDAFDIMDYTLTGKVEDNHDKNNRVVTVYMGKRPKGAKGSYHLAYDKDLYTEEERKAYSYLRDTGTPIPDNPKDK

Streptococcus = assay: Group A Streptococcus viability loss, dose response, counter-screen for streptokinase expression inhibitor project, luminescence, BacTiterGlo (AID 1915); assay type: functional, organism-based;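 note: potency for reduction of bacterial viability or growth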
[22] = target: T5, Sentrin-specific protease 8 (Homo sapiens, UniProt Q96LD8); assay type: functional
T5 sequence (Q96LD8 whole entry): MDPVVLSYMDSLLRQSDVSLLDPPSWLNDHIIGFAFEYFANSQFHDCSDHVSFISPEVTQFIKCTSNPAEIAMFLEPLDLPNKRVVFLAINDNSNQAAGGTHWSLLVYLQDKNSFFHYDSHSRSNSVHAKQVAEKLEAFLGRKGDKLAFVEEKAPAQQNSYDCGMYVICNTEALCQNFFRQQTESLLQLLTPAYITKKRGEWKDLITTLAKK

[23] = target: T5, Sentrin-specific protease 8; assay type: functional; remark: listed apart in the source
[24] = target: T6, Heat shock factor protein 1 (Mus musculus, UniProt P38532); assay: HSF1 potentiators in luciferase reporter cells, confirmation, cell-based, NIH3T3, luminescence, dose retest (AID 435004); assay type: functional;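 note: stress induced by proteasome inhibitor MG132 added 30 min after compound; luciferase reporter driven by HSF1 response element in NIH3T3 cells; actives raise luminescence as potentiators of the MG132 stress response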
T6 sequence (P38532 whole entry): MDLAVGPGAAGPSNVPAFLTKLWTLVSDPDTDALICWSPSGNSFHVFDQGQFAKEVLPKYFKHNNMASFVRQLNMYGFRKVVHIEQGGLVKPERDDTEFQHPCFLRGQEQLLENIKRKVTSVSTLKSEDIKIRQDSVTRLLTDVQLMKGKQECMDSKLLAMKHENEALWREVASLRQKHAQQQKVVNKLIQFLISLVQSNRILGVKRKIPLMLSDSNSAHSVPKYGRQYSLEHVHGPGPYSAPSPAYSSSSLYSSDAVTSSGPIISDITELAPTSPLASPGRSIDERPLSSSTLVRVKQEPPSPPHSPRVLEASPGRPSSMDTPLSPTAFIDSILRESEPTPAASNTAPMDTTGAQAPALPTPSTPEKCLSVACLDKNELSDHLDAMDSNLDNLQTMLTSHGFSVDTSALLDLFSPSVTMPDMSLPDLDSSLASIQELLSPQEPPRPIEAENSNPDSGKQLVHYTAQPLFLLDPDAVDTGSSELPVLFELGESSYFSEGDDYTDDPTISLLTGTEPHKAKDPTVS

[25] = HeLa cell cytotoxicity, dose response, cytotoxicity control for MgcRacGAP inhibitor project (AID 624300); assay type: functional

SMILES: CCC(C)Nc1nc(-c2ccccn2)nc2ccccc12 (stereo not given)
- EC50 [1]: 1.33 µM (active)
- EC50 [2]: > 30 µM (not active)
- IC50 (Nonstructural protein 1): 25.5 µM (active)
- AC50 (HEK293): 4.94 µM (active)
- AC50 (INS1): 2.89 µM (active)
- IC50 [3]: 4.14 µM (active)
- AC50 [4]: 117 µM (active)

SMILES: c1ccc(CN2CCN(c3ncccn3)CC2)cc1
- EC50 (Mu-type opioid receptor): 92.5 µM (inactive)
- EC50 [5]: 0.235 µM (active)

SMILES: S=C(Nc1ccc2nsnc2c1)N1CCCC1
- IC50 [6]: > 128 µM (inactive)

SMILES: CCCOc1ccc(OCCOCCN2CCc3ccccc3C2)cc1
- EC50 [1]: 0.205 µM (active)
- EC50 [2]: > 30 µM (not active)
- IC50 (cells [7]): > 29.9 µM (inactive)
- EC50 [8]: 2.08 µM (active)
- IC50 [9]: > 3.32 µM (active)
- EC50 (cells [10]): > 29.9 µM (inactive)

SMILES: O=C(Cn1sc2ccccc2c1=O)Nc1ccc(F)cc1
- IC50 (Hexokinase): 6.23 µM (active)
- IC50 [11]: 14.9 µM (active)
- IC50 [12]: 9.51 µM (active)
- IC50 (Beta Lactamase): 19.3 µM (inactive)
- IC50 [13]: 56.2 µM (active)
- EC50 [14]: > 91.1 µM (inactive)
- EC50 [15]: > 91.1 µM (inactive)

SMILES: COc1cccc(S(=O)(=O)N(C)C[C@@H]2OCc3ccccc3-c3c(n(C)c4ccccc34)C(=O)N([C@@H](C)CO)C[C@@H]2C)c1
- AC50 [16]: 16.5 µM (active)
- AC50 [17]: 34.8 µM (active)
- AC50 (Paired box protein Pax-8): 5.8 µM (active)
- AC50 [18]: 19.2 µM (active)
- AC50 [19]: > 70 µM (inactive)

SMILES: COc1cccc(S(=O)(=O)N2CC3(CN(C(=O)Nc4cccc(F)c4)[C@@H](CO)c4[nH]c5cc(OC)ccc5c43)C2)c1
- AC50 [16]: 0.986 µM (active)
- AC50 [17]: 26.1 µM (active)
- AC50 [18]: 27.1 µM (active)

SMILES: O=[N+]([O-])c1ccc(/C=[N+](\[O-])CCO)o1
- EC50 [20]: > 50 µM (active)
- EC50 [21]: 3.97 µM (active)
- EC50 (Streptokinase A): > 150 µM (not active)
- EC50 (Streptococcus): 9.91 µM (active)
- IC50 [22]: 43.4 µM (active)
- IC50 [23]: 16.7 µM (active)

SMILES: O=S(=O)(c1ccc(Cl)c(NC(=S)N/N=C/c2ccc(O)cc2)c1)N1CCOCC1
- EC50 [24]: > 260 µM (inactive)
- CC50 [25]: 45.7 µM (active)
- IC50 [13]: 47.6 µM (active)
